From ChEMBL document CHEMBL4145577, “Cytotoxic Anthracycline Metabolites from a Recombinant Streptomyces” (J Nat Prod, 2018)

What was measured:
MDA-MB-435 = experiment: Cytotoxicity against human MDA-MB-435 cells after 48 hrs by MTT assay; type: functional, cell-based; settings: MDA-MB-435, 48 h
NCI-H460 = experiment: Cytotoxicity against human NCI-H460 cells after 48 hrs by MTT assay; type: functional, cell-based; settings: NCI-H460, 48 h
MDA-MB-231 = experiment: Cytotoxicity against human MDA-MB-231 cells after 48 hrs by MTT assay; type: functional, cell-based; settings: MDA-MB-231, 48 h
HCT-116 = experiment: Cytotoxicity against human HCT116 cells after 48 hrs by MTT assay; type: functional, cell-based; settings: HCT-116, 48 h
HepG2 = experiment: Cytotoxicity against human HepG2 cells after 48 hrs by MTT assay; type: functional, cell-based; settings: HepG2, 48 h
MCF-10A = experiment: Cytotoxicity against human MCF10A cells after 48 hrs by MTT assay; type: cell-based

CC[C@@]1(O)C[C@H](O)c2c(O)c3c(c(O)c2[C@H]1C(=O)OC)C(=O)c1cccc(O)c1C3=O
IC50 (MDA-MB-435): 9.2 µM
IC50 (NCI-H460): 10000 nM
IC50 (MDA-MB-231): 13.2 µM
IC50 (HCT-116): 9.6 µM
IC50 (HepG2): 13.5 µM
IC50 (MCF-10A): 7.1 µM

CC[C@@]1(O)C[C@H](O[C@H]2CC[C@H](O[C@H]3C[C@H](O)[C@H](O[C@H]4CC[C@H](O)[C@H](C)O4)[C@H](C)O3)[C@H](C)O2)c2c(O)c3c(c(O)c2[C@H]1O)C(=O)c1cccc(O)c1C3=O
IC50 (MDA-MB-435): 3.1 µM
IC50 (NCI-H460): 1600 nM
IC50 (MDA-MB-231): 24.5 µM
IC50 (HCT-116): 6.1 µM
IC50 (HepG2): 5.7 µM
IC50 (MCF-10A): 6.7 µM

CC[C@@]1(O)C[C@H](O[C@H]2C[C@H](O)[C@H](O[C@H]3C[C@H](O)[C@H](O)[C@H](C)O3)[C@H](C)O2)c2c(O)c3c(c(O)c2[C@H]1O)C(=O)c1cccc(O)c1C3=O
IC50 (NCI-H460): 600 nM
IC50 (MDA-MB-231): 10.2 µM
IC50 (HCT-116): 13.2 µM
IC50 (HepG2): 2 µM
IC50 (MCF-10A): 2.5 µM

CC[C@@]1(O)C[C@H](O[C@H]2CC[C@H](O[C@H]3CC[C@H](O[C@H]4CC[C@H](O)[C@H](C)O4)[C@H](C)O3)[C@H](C)O2)c2c(O)c3c(c(O)c2[C@H]1C(=O)OC)C(=O)c1cccc(O)c1C3=O
IC50 (MDA-MB-435): 2.7 µM
IC50 (NCI-H460): 10000 nM
IC50 (MDA-MB-231): 4.5 µM
IC50 (HCT-116): 0.2 µM
IC50 (HepG2): 1.7 µM
IC50 (MCF-10A): 1.4 µM

CC[C@]1(O)Cc2c(O)c3c(c(O)c2[C@@H](O[C@H]2C[C@H](O)[C@H](O[C@H]4C[C@H](O)[C@H](O[C@H]5CC[C@H](O)[C@H](C)O5)[C@H](C)O4)[C@H](C)O2)C1)C(=O)c1c(O)cccc1C3=O
IC50 (MDA-MB-435): 6.2 µM
IC50 (NCI-H460): 900 nM
IC50 (MDA-MB-231): > 50 µM
IC50 (HCT-116): 3.1 µM
IC50 (HepG2): 11.3 µM
IC50 (MCF-10A): 16.9 µM

CC[C@@]1(O)C[C@H](O[C@H]2C[C@H](O)[C@H](O[C@H]3C[C@H](O)[C@H](O[C@H]4C[C@H](O)[C@H](O)[C@H](C)O4)[C@H](C)O3)[C@H](C)O2)c2c(O)c3c(c(O)c2[C@H]1O)C(=O)c1cccc(O)c1C3=O
IC50 (MDA-MB-435): 7 µM
IC50 (NCI-H460): 4800 nM
IC50 (MDA-MB-231): 40.2 µM
IC50 (HCT-116): 9.8 µM
IC50 (HepG2): 8 µM
IC50 (MCF-10A): 3.7 µM

CC[C@@]1(O)C[C@H](O[C@H]2C[C@H](O)[C@H](O[C@H]3C[C@H](O)[C@H](O[C@H]4CCC(=O)[C@H](C)O4)[C@H](C)O3)[C@H](C)O2)c2c(O)c3c(c(O)c2[C@H]1O)C(=O)c1cccc(O)c1C3=O
IC50 (MDA-MB-435): 5.6 µM
IC50 (NCI-H460): 380 nM
IC50 (MDA-MB-231): 5.4 µM
IC50 (HCT-116): 1.4 µM
IC50 (HepG2): 0.9 µM
IC50 (MCF-10A): 2 µM

CC[C@@]1(O)C[C@H](O[C@H]2C[C@H](O)[C@H](O[C@H]3C[C@H](O)[C@H](O[C@H]4CC[C@H](O)[C@H](C)O4)[C@H](C)O3)[C@H](C)O2)c2c(O)c3c(c(O)c2[C@H]1O)C(=O)c1cccc(O)c1C3=O
IC50 (NCI-H460): 700 nM
IC50 (MDA-MB-231): 7.4 µM
IC50 (HCT-116): 5 µM
IC50 (HepG2): 1.5 µM
IC50 (MCF-10A): 3.4 µM

CC[C@@]1(O)C[C@H](O[C@H]2C[C@H](O)[C@H](O[C@H]3CC[C@H](O[C@H]4CC[C@H](O)[C@H](C)O4)[C@H](C)O3)[C@H](C)O2)c2c(O)c3c(c(O)c2[C@H]1O)C(=O)c1cccc(O)c1C3=O
IC50 (MDA-MB-435): 11.7 µM
IC50 (NCI-H460): 1300 nM
IC50 (MDA-MB-231): 10.4 µM
IC50 (HCT-116): 32.8 µM
IC50 (HepG2): 5.5 µM
IC50 (MCF-10A): 5.2 µM

CC[C@@]1(O)C[C@H](O[C@H]2CC[C@H](O[C@H]3C[C@H](O)[C@H](O[C@H]4CC[C@H](O)[C@H](C)O4)[C@H](C)O3)[C@H](C)O2)c2c(O)c3c(c(O)c2[C@H]1C(=O)OC)C(=O)c1cccc(O)c1C3=O
IC50 (MDA-MB-435): 1.9 µM
IC50 (NCI-H460): 5700 nM
IC50 (MDA-MB-231): 9.3 µM
IC50 (HCT-116): 3.6 µM
IC50 (HepG2): 6.4 µM
IC50 (MCF-10A): 4.6 µM

CC[C@@]1(O)C[C@H](O[C@H]2C[C@H](O)[C@H](O[C@H]3CC[C@H](O[C@H]4CC[C@H](OC5CC[C@H](O)[C@H](C)O5)[C@H](C)O4)[C@H](C)O3)[C@H](C)O2)c2c(O)c3c(c(O)c2[C@H]1O)C(=O)c1cccc(O)c1C3=O (stereo partly drawn)
IC50 (MDA-MB-435): 37.9 µM
IC50 (NCI-H460): 2200 nM
IC50 (MDA-MB-231): 10.1 µM
IC50 (HCT-116): 7.2 µM
IC50 (HepG2): 8.5 µM
IC50 (MCF-10A): 5.7 µM

CC[C@@]1(O)C[C@H](O[C@H]2C[C@H](O)[C@H](O[C@H]3CC[C@H](O[C@H]4C[C@H](O)[C@H](O)[C@H](C)O4)[C@H](C)O3)[C@H](C)O2)c2c(O)c3c(c(O)c2[C@H]1O)C(=O)c1cccc(O)c1C3=O
IC50 (MDA-MB-435): 5.9 µM
IC50 (NCI-H460): 2600 nM
IC50 (MDA-MB-231): 19.2 µM
IC50 (HCT-116): 5.8 µM
IC50 (HepG2): 6.2 µM
IC50 (MCF-10A): 10.5 µM

CC[C@]1(O)Cc2c(O)c3c(c(O)c2[C@@H](O[C@H]2C[C@H](O)[C@H](O[C@H]4CC[C@H](O[C@H]5CC[C@H](O)[C@H](C)O5)[C@H](C)O4)[C@H](C)O2)C1)C(=O)c1c(O)cccc1C3=O
IC50 (MDA-MB-435): 4.2 µM
IC50 (NCI-H460): 5400 nM
IC50 (MDA-MB-231): > 50 µM
IC50 (HCT-116): 0.3 µM
IC50 (HepG2): 8.6 µM
IC50 (MCF-10A): 2.2 µM

CC[C@@]1(O)C[C@H](O[C@H]2CC[C@H](O[C@H]3C[C@H](O)[C@H](O[C@H]4CCC(=O)[C@H](C)O4)[C@H](C)O3)[C@H](C)O2)c2c(O)c3c(c(O)c2[C@H]1O)C(=O)c1cccc(O)c1C3=O
IC50 (MDA-MB-435): 3.9 µM
IC50 (NCI-H460): 2400 nM
IC50 (MDA-MB-231): 23.9 µM
IC50 (HCT-116): 5.4 µM
IC50 (HepG2): 9.3 µM
IC50 (MCF-10A): 10.4 µM

CC[C@@]1(O)CCc2c(O)c3c(c(O)c2[C@H]1O)C(=O)c1cccc(O)c1C3=O
IC50 (MDA-MB-435): 5.7 µM
IC50 (NCI-H460): 7300 nM
IC50 (MDA-MB-231): 10.9 µM
IC50 (HCT-116): 6 µM
IC50 (HepG2): 13 µM
IC50 (MCF-10A): 11.9 µM

COc1cccc2c1C(=O)c1c(O)c3c(c(O)c1C2=O)C[C@@](O)(C(=O)CO)C[C@@H]3O[C@H]1C[C@H](N)[C@@H](O)[C@H](C)O1 [EPIRUBICIN]
IC50 (MDA-MB-435): 0.7 µM
IC50 (NCI-H460): 20 nM
IC50 (MDA-MB-231): 0.9 µM
IC50 (HCT-116): 0.4 µM
IC50 (MCF-10A): 0.1 µM
